System: MC38 tumors
Assay: Anti-tumor efficacy of Compound 1 and Compound 3 by IV and SC routes in the MC38 model (Example 9)
Assay type: in vivo, mice
Protocol: Female C57BL/6 mice were inoculated subcutaneously in the right flank with MC38 cells for tumor development. Six days after tumor inoculation, mice with tumor sizes ranging from 52-97 mm^3 (average tumor size 71 mm^3) were selected and assigned into 10 groups using stratified randomization with 8 mice per group based upon their tumor volumes. The treatments were started from the day of randomization (defined as D0), Group 1 was treated with Vehicle control, SC qd×5 days on (Mon-Fri)×4 cycles; Group 2 was treated with Compound 1, 1.4 mpk SC, qd×5 days on (Mon-Fri)×4 cycles; Group 3 was treated with Compound 1, 7 mpk IV, biw (Mon, Thu)×4 cycles; Group 4 was treated with Compound 1, 14 mpk IV, biw (Mon, Thu)×4 cycles; Group 5 was treated with Compound 1, 14 mpk IV, qw (Mon)×4 cycles; Group 6 was treated with Compound 1, 21 mpk IV, qw (Mon)×4 cycles; Group 7 was treated with Compound 3, 1 mpk SC, qd 5 days on (Mon-Fri)×4 cycles; Group 8 was treated with Compound 3, 3 mpk SC, qd 5 days on (Mon-Fri)×4 cycles; Group 9 was treated with Compound 3, 9 mpk SC, qd 5 days on (Mon-Fri)×4 cycles; and Group 10 was treated with Compound 3, 7 mpk IV, tiw (Mon, Wed, Fri)×4 cycles. The tumor sizes were measured three times per week during the treatment. Survival was monitored with tumor volume exceeding 2000 mm^3 as endpoint. The entire study was terminated on D44 after start of the treatment. All treatments were well-tolerated without any adverse effects or significant body weight loss.

[1] = Group 7, 1 mpk SC qd Mon-Fri x4 cycles
[2] = Group 7, 1 mpk SC qd Mon-Fri x4 cycles, day 11
[3] = Group 8, 3 mpk SC qd Mon-Fri x4 cycles
[4] = Group 8, 3 mpk SC qd Mon-Fri x4 cycles, day 11
[5] = Group 9, 9 mpk SC qd Mon-Fri x4 cycles
[6] = Group 9, 9 mpk SC qd Mon-Fri x4 cycles, day 11
[7] = Group 10, 7 mpk IV tiw x4 cycles

## CC(=O)N[C@@H](Cc1c[nH]c2ccccc12)C(=O)N[C@@H](CCC(=O)C=[N+]=[N-])C(=O)O [Compound 3, (S)-2-((S)-2-acetamido-3-(1H-indol-3-yl)propanamido)-6-diazo-5-oxohexanoic acid]
[1]
  ILS: 106.7%
  MST: 31 days
  RTV at day 11: 2.22 ± 0.22
  Tumor Size at day 11: 152 ± 10 mm^3
Group 7, 1 mpk SC qd Mon-Fri x4 cycles, day 0
  Tumor volume: 70 ± 4 mm^3
Group 7, 1 mpk SC qd Mon-Fri x4 cycles, day 2
  Tumor volume: 91 ± 9 mm^3
Group 7, 1 mpk SC qd Mon-Fri x4 cycles, day 4
  Tumor volume: 83 ± 9 mm^3
Group 7, 1 mpk SC qd Mon-Fri x4 cycles, day 7
  Tumor volume: 201 ± 26 mm^3
Group 7, 1 mpk SC qd Mon-Fri x4 cycles, day 9
  Tumor volume: 181 ± 18 mm^3
[2]
  T/C: 13.66%
  TGI: 92.34%
  Tumor volume: 152 ± 10 mm^3
Group 7, 1 mpk SC qd Mon-Fri x4 cycles, day 14
  Tumor volume: 293 ± 60 mm^3
Group 7, 1 mpk SC qd Mon-Fri x4 cycles, day 16
  Tumor volume: 298 ± 60 mm^3
Group 7, 1 mpk SC qd Mon-Fri x4 cycles, day 18
  Tumor volume: 400 ± 79 mm^3
Group 7, 1 mpk SC qd Mon-Fri x4 cycles, day 21
  Tumor volume: 644 ± 160 mm^3
Group 7, 1 mpk SC qd Mon-Fri x4 cycles, day 23
  Tumor volume: 975 ± 238 mm^3
[3]
  ILS: 170.0%
  MST: 40.5 days
  RTV at day 11: 0.85 ± 0.11
  Tumor Size at day 11: 39 ± 5 mm^3
Group 8, 3 mpk SC qd Mon-Fri x4 cycles, day 0
  Tumor volume: 70 ± 5 mm^3
Group 8, 3 mpk SC qd Mon-Fri x4 cycles, day 2
  Tumor volume: 88 ± 7 mm^3
Group 8, 3 mpk SC qd Mon-Fri x4 cycles, day 4
  Tumor volume: 59 ± 9 mm^3
Group 8, 3 mpk SC qd Mon-Fri x4 cycles, day 7
  Tumor volume: 57 ± 14 mm^3
Group 8, 3 mpk SC qd Mon-Fri x4 cycles, day 9
  Tumor volume: 45 ± 6 mm^3
[4]
  T/C: 5.22%
  TGI: 101.21%
  Tumor volume: 39 ± 5 mm^3
Group 8, 3 mpk SC qd Mon-Fri x4 cycles, day 14
  Tumor volume: 41 ± 7 mm^3
Group 8, 3 mpk SC qd Mon-Fri x4 cycles, day 16
  Tumor volume: 47 ± 7 mm^3
Group 8, 3 mpk SC qd Mon-Fri x4 cycles, day 18
  Tumor volume: 22 ± 4 mm^3
Group 8, 3 mpk SC qd Mon-Fri x4 cycles, day 21
  Tumor volume: 29 ± 3 mm^3
Group 8, 3 mpk SC qd Mon-Fri x4 cycles, day 23
  Tumor volume: 26 ± 2 mm^3
Group 8, 3 mpk SC qd Mon-Fri x4 cycles, day 25
  Tumor volume: 23 ± 4 mm^3
Group 8, 3 mpk SC qd Mon-Fri x4 cycles, day 28
  Tumor volume: 22 ± 4 mm^3
Group 8, 3 mpk SC qd Mon-Fri x4 cycles, day 30
  Tumor volume: 52 ± 8 mm^3
Group 8, 3 mpk SC qd Mon-Fri x4 cycles, day 32
  Tumor volume: 213 ± 47 mm^3
Group 8, 3 mpk SC qd Mon-Fri x4 cycles, day 35
  Tumor volume: 351 ± 61 mm^3
Group 8, 3 mpk SC qd Mon-Fri x4 cycles, day 37
  Tumor volume: 692 ± 129 mm^3
[5]
  ILS: 180.0%
  MST: 42 days
  RTV at day 11: 0.56 ± 0.07
  Tumor Size at day 11: 39 ± 5 mm^3
Group 9, 9 mpk SC qd Mon-Fri x4 cycles, day 0
  Tumor volume: 71 ± 5 mm^3
Group 9, 9 mpk SC qd Mon-Fri x4 cycles, day 2
  Tumor volume: 88 ± 7 mm^3
Group 9, 9 mpk SC qd Mon-Fri x4 cycles, day 4
  Tumor volume: 59 ± 9 mm^3
Group 9, 9 mpk SC qd Mon-Fri x4 cycles, day 7
  Tumor volume: 57 ± 14 mm^3
Group 9, 9 mpk SC qd Mon-Fri x4 cycles, day 9
  Tumor volume: 45 ± 6 mm^3
[6]
  T/C: 3.45%
  TGI: 102.98%
  Tumor volume: 39 ± 5 mm^3
Group 9, 9 mpk SC qd Mon-Fri x4 cycles, day 14
  Tumor volume: 41 ± 7 mm^3
Group 9, 9 mpk SC qd Mon-Fri x4 cycles, day 16
  Tumor volume: 47 ± 7 mm^3
Group 9, 9 mpk SC qd Mon-Fri x4 cycles, day 18
  Tumor volume: 22 ± 4 mm^3
Group 9, 9 mpk SC qd Mon-Fri x4 cycles, day 21
  Tumor volume: 29 ± 3 mm^3
Group 9, 9 mpk SC qd Mon-Fri x4 cycles, day 23
  Tumor volume: 26 ± 2 mm^3
Group 9, 9 mpk SC qd Mon-Fri x4 cycles, day 25
  Tumor volume: 23 ± 4 mm^3
Group 9, 9 mpk SC qd Mon-Fri x4 cycles, day 28
  Tumor volume: 22 ± 4 mm^3
Group 9, 9 mpk SC qd Mon-Fri x4 cycles, day 30
  Tumor volume: 52 ± 8 mm^3
Group 9, 9 mpk SC qd Mon-Fri x4 cycles, day 32
  Tumor volume: 213 ± 47 mm^3
Group 9, 9 mpk SC qd Mon-Fri x4 cycles, day 35
  Tumor volume: 351 ± 61 mm^3
Group 9, 9 mpk SC qd Mon-Fri x4 cycles, day 37
  Tumor volume: 692 ± 129 mm^3
Group 9, 9 mpk SC qd Mon-Fri x4 cycles, day 39
  Tumor volume: 1235 ± 196 mm^3
Group 9, 9 mpk SC qd Mon-Fri x4 cycles, day 42
  Tumor volume: 2174 ± 275 mm^3
[7]
  ILS: 146.7%
  MST: 37 days
Group 10, 7 mpk IV tiw x4 cycles, day 0
  Tumor volume: 71 ± 5 mm^3
Group 10, 7 mpk IV tiw x4 cycles, day 2
  Tumor volume: 86 ± 5 mm^3
Group 10, 7 mpk IV tiw x4 cycles, day 4
  Tumor volume: 76 ± 7 mm^3
Group 10, 7 mpk IV tiw x4 cycles, day 7
  Tumor volume: 76 ± 8 mm^3
Group 10, 7 mpk IV tiw x4 cycles, day 9
  Tumor volume: 61 ± 7 mm^3
Group 10, 7 mpk IV tiw x4 cycles, day 11
  Tumor volume: 68 ± 13 mm^3
Group 10, 7 mpk IV tiw x4 cycles, day 14
  Tumor volume: 85 ± 16 mm^3
Group 10, 7 mpk IV tiw x4 cycles, day 16
  Tumor volume: 115 ± 21 mm^3
Group 10, 7 mpk IV tiw x4 cycles, day 18
  Tumor volume: 107 ± 21 mm^3
Group 10, 7 mpk IV tiw x4 cycles, day 21
  Tumor volume: 131 ± 21 mm^3
Group 10, 7 mpk IV tiw x4 cycles, day 23
  Tumor volume: 233 ± 46 mm^3
Group 10, 7 mpk IV tiw x4 cycles, day 25
  Tumor volume: 273 ± 59 mm^3
Group 10, 7 mpk IV tiw x4 cycles, day 28
  Tumor volume: 356 ± 103 mm^3
Group 10, 7 mpk IV tiw x4 cycles, day 30
  Tumor volume: 575 ± 121 mm^3
Group 10, 7 mpk IV tiw x4 cycles, day 32
  Tumor volume: 849 ± 134 mm^3
Group 10, 7 mpk IV tiw x4 cycles, day 35
  Tumor volume: 1688 ± 223 mm^3

From patent US20220117938A1, “COMBINATON THERAPY WITH A DON PRODRUG AND AN IMMUNE CHECKPOINT INHIBITOR” (DRACEN PHARMACEUTICALS, INC., priority 2019, published 2022)
